Where two headings read alike, the source gives them in different places. Some results are limits rather than exact numbers.

Test [1] concerns mouse FL5.12 cells transfected with Bcl-XL. Briefly: FL5.12 cellular assay (cell viability, CellTiter-Glo).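 Note: each EC50 determination derived from duplicate measurements.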 The test is classed as cell-based. To be noted: FL5.12 cells transfected with Bcl-XL, IL-3-depleted, 3% FBS assay media, 24 hours, CellTiter-Glo, read-out: FL5.12 Bcl-xL, - IL3, EC 50. (In ATP-based viability assays light output follows the ATP content of the culture.)
Another test concerns the target GST-Bcl-xL (Homo sapiens, UniProt Q07817). The conditions noted are these: read-out: TR-FRET binding Bcl-xL Ki. In general terms: In TR-FRET formats the signal depends on donor and acceptor labels being close together.

Sequence of GST-Bcl-xL (Q07817 whole entry): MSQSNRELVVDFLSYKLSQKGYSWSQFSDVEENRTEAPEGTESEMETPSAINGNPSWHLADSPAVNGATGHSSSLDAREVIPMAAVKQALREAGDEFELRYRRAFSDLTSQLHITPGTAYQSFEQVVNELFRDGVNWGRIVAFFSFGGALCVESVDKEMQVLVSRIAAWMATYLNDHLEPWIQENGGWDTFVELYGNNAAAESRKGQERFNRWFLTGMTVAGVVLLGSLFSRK

A word on the Ki: it is the dissociation constant of the complex between target and ligand, obtained from inhibition or displacement. Turning to `O=C(Nc1nc2ccccc2s1)c1cccc2c1CN(c1ccc(-c3cnn(Cc4cccnc4)c3)c(C(=O)O)n1)CC2` [Example 3, 6-[8-(1,3-benzothiazol-2-ylcarbamoyl)-3,4-dihydroisoquinolin-2(1H)-yl]-3-[1-(pyridin-3-ylmethyl)-1H-pyrazol-4-yl]pyridine-2-carboxylic acid], the EC50 in test [1] is greater than 1000 nM. In addition, the Ki at GST-Bcl-xL is 258 nM. On to `CC(c1ccccc1)n1cc(-c2ccc(N3CCc4cccc(C(=O)Nc5nc6ccccc6s5)c4C3)nc2C(=O)O)cn1` (centres unmarked) [Example 5, 6-[8-(1,3-benzothiazol-2-ylcarbamoyl)-3,4-dihydroisoquinolin-2(1H)-yl]-3-[1-(1-phenylethyl)-1H-pyrazol-4-yl]pyridine-2-carboxylic acid], for which, in test [1] (Mus musculus), the EC50 is 408 nM. Further, the Ki at GST-Bcl-xL came out at 19 nM. For the molecule `COc1ccc2nc(NC(=O)c3cccc4c3CN(c3ccc(-c5cnn(Cc6ccccc6)c5)c(C(=O)O)n3)CC4)sc2c1` [Example 11, 3-(1-benzyl-1H-pyrazol-4-yl)-6-{8-[(6-methoxy-1,3-benzothiazol-2-yl)carbamoyl]-3,4-dihydroisoquinolin-2(1H)-yl}pyridine-2-carboxylic acid], the EC50 in test [1] was greater than 1000 nM. For the same molecule, the Ki at GST-Bcl-xL is 180 nM. In the case of `Cc1nn(Cc2ccccc2)c(C)c1-c1ccc(N2CCc3cccc(C(=O)Nc4nc5ccccc5s4)c3C2)nc1C(=O)O` [Example 12, 6-[8-(1,3-benzothiazol-2-ylcarbamoyl)-3,4-dihydroisoquinolin-2(1H)-yl]-3-(1-benzyl-3,5-dimethyl-1H-pyrazol-4-yl)pyridine-2-carboxylic acid], the EC50 in test [1] (Mus musculus) turned out to be 51 nM. For the same molecule, the Ki on GST-Bcl-xL was 8 nM. Turning to `COc1cccc(Cn2cc(-c3ccc(N4CCc5cccc(C(=O)Nc6nc7ccccc7s6)c5C4)nc3C(=O)O)cn2)c1` [Example 14, 6-[8-(1,3-benzothiazol-2-ylcarbamoyl)-3,4-dihydroisoquinolin-2(1H)-yl]-3-[1-(3-methoxybenzyl)-1H-pyrazol-4-yl]pyridine-2-carboxylic acid], the EC50 in test [1] is greater than 1000 nM. The inhibitory constant (Ki) at GST-Bcl-xL is 12 nM. `O=C(Nc1nc2ccccc2s1)c1cccc2c1CN(c1ccc(-c3cnn(Cc4ccc(Cl)cc4)c3)c(C(=O)O)n1)CC2` [Example 15, 6-[8-(1,3-benzothiazol-2-ylcarbamoyl)-3,4-dihydroisoquinolin-2(1H)-yl]-3-[1-(4-chlorobenzyl)-1H-pyrazol-4-yl]pyridine-2-carboxylic acid]: in test [1], the EC50 is greater than 1000 nM. Also, the Ki at GST-Bcl-xL was determined as 35 nM. The corresponding values for `O=C(Nc1nc2ccccc2s1)c1cccc2c1CN(c1ccc(-c3cnn(Cc4cccc(O)c4)c3)c(C(=O)O)n1)CC2` [Example 17, 6-[8-(1,3-benzothiazol-2-ylcarbamoyl)-3,4-dihydroisoquinolin-2(1H)-yl]-3-[1-(3-hydroxybenzyl)-1H-pyrazol-4-yl]pyridine-2-carboxylic acid] are greater than 1000 nM and 31 nM. Take `CN(C)CCOc1cccc(Cn2cc(-c3ccc(N4CCc5cccc(C(=O)Nc6nc7ccccc7s6)c5C4)nc3C(=O)O)cn2)c1` [Example 18, 6-[8-(1,3-benzothiazol-2-ylcarbamoyl)-3,4-dihydroisoquinolin-2(1H)-yl]-3-(1-{3-[2-(dimethylamino)ethoxy]benzyl}-1H-pyrazol-4-yl)pyridine-2-carboxylic acid]: the EC50 in test [1] (Mus musculus) turned out to be 621 nM. The Ki on GST-Bcl-xL is 38 nM. With `Cc1nn(Cc2ccccc2)cc1-c1ccc(N2CCc3cccc(C(=O)Nc4nc5ccccc5s4)c3C2)nc1C(=O)O` [Example 19, 6-[8-(1,3-benzothiazol-2-ylcarbamoyl)-3,4-dihydroisoquinolin-2(1H)-yl]-3-(1-benzyl-3-methyl-1H-pyrazol-4-yl)pyridine-2-carboxylic acid], in test [1] (Mus musculus), the EC50 is 398 nM. For the same molecule, the Ki on GST-Bcl-xL came out at 28 nM. Regarding `O=C(Nc1nc2cccc(Cl)c2s1)c1cccc2c1CN(c1ccc(-c3cnn(Cc4ccccc4)c3)c(C(=O)O)n1)CC2` [Example 21, 3-(1-benzyl-1H-pyrazol-4-yl)-6-{8-[(7-chloro-1,3-benzothiazol-2-yl)carbamoyl]-3,4-dihydroisoquinolin-2(1H)-yl}pyridine-2-carboxylic acid], the EC50 in test [1] is greater than 1000 nM. The Ki at GST-Bcl-xL amounted to 183 nM. On to `O=C(Nc1nc2ccccc2s1)c1cccc2c1CN(c1ccc(-c3cnn(Cc4cccc(N5CCCC5)n4)c3)c(C(=O)O)n1)CC2` [Example 22, 6-[8-(1,3-benzothiazol-2-ylcarbamoyl)-3,4-dihydroisoquinolin-2(1H)-yl]-3-(1-{[6-(pyrrolidin-1-yl)pyridin-2-yl]methyl}-1H-pyrazol-4-yl)pyridine-2-carboxylic acid], for which the EC50 in test [1] (Mus musculus) was 214 nM. Besides, the Ki on GST-Bcl-xL came to 6 nM.

Take `O=C(Nc1nc2ccccc2s1)c1cccc2c1CN(c1ccc(-c3cnn(-c4ccccc4)c3)c(C(=O)O)n1)CC2` [Example 23, 6-[8-(1,3-benzothiazol-2-ylcarbamoyl)-3,4-dihydroisoquinolin-2(1H)-yl]-3-(1-phenyl-1H-pyrazol-4-yl)pyridine-2-carboxylic acid]: the EC50 in test [1] (Mus musculus) was greater than 1000 nM. The Ki on GST-Bcl-xL was found to be 182 nM. As to `N#Cc1cccc(Cn2cc(-c3ccc(N4CCc5cccc(C(=O)Nc6nc7ccccc7s6)c5C4)nc3C(=O)O)cn2)c1` [Example 24, 6-[8-(1,3-benzothiazol-2-ylcarbamoyl)-3,4-dihydroisoquinolin-2(1H)-yl]-3-[1-(3-cyanobenzyl)-1H-pyrazol-4-yl]pyridine-2-carboxylic acid], the EC50 in test [1] is greater than 1000 nM. In addition, the Ki on GST-Bcl-xL was 64 nM.

Consider `O=C(Nc1nc2ccccc2s1)c1cccc2c1CN(c1ccc(-c3cnn(Cc4ccccn4)c3)c(C(=O)O)n1)CC2` [Example 26, 6-[8-(1,3-benzothiazol-2-ylcarbamoyl)-3,4-dihydroisoquinolin-2(1H)-yl]-3-[1-(pyridin-2-ylmethyl)-1H-pyrazol-4-yl]pyridine-2-carboxylic acid], for which, in test [1], the EC50 was greater than 1000 nM. Further, on GST-Bcl-xL, the Ki was 167 nM. For `N#Cc1nn(Cc2ccccc2)cc1-c1ccc(N2CCc3cccc(C(=O)Nc4nc5ccccc5s4)c3C2)nc1C(=O)O` [Example 27, 6-[8-(1,3-benzothiazol-2-ylcarbamoyl)-3,4-dihydroisoquinolin-2(1H)-yl]-3-(1-benzyl-3-cyano-1H-pyrazol-4-yl)pyridine-2-carboxylic acid], the EC50 in test [1] (Mus musculus) is greater than 1000 nM. The Ki on GST-Bcl-xL was 315 nM. `O=C(Nc1nc2ccccc2s1)c1cccc2c1CN(c1ccc(-c3cnn(Cc4ccc5ccccc5c4)c3)c(C(=O)O)n1)CC2` [Example 28, 6-[8-(1,3-benzothiazol-2-ylcarbamoyl)-3,4-dihydroisoquinolin-2(1H)-yl]-3-[1-(naphthalen-2-ylmethyl)-1H-pyrazol-4-yl]pyridine-2-carboxylic acid]: in test [1] (Mus musculus), the EC50 is greater than 1000 nM. Moreover, the inhibition constant (Ki) at GST-Bcl-xL amounted to 33 nM. `Cc1noc(-c2cccc(Cn3cc(-c4ccc(N5CCc6cccc(C(=O)Nc7nc8ccccc8s7)c6C5)nc4C(=O)O)cn3)c2)n1` [Example 29, 6-[8-(1,3-benzothiazol-2-ylcarbamoyl)-3,4-dihydroisoquinolin-2(1H)-yl]-3-{1-[3-(3-methyl-1,2,4-oxadiazol-5-yl)benzyl]-1H-pyrazol-4-yl}pyridine-2-carboxylic acid]: the EC50 in test [1] (Mus musculus) was greater than 1000 nM. On GST-Bcl-xL, the Ki amounted to 18 nM.

Consider `Cc1c(Oc2ccccc2)cccc1-c1ccc(N2CCc3cccc(C(=O)Nc4nc5ccccc5s4)c3C2)nc1C(=O)O` [Example 110, 6-[8-(1,3-benzothiazol-2-ylcarbamoyl)-3,4-dihydroisoquinolin-2(1H)-yl]-3-(2-methyl-3-phenoxyphenyl)pyridine-2-carboxylic acid], for which the EC50 in test [1] (Mus musculus) stood at 90 nM. In the case of `O=C(Nc1nc2ccccc2s1)c1cccc2c1CN(c1ccc(-c3ccn(Cc4ccccc4)c3)c(C(=O)O)n1)CC2` [Example 125, 6-[8-(1,3-benzothiazol-2-ylcarbamoyl)-3,4-dihydroisoquinolin-2(1H)-yl]-3-(1-benzyl-1H-pyrrol-3-yl)pyridine-2-carboxylic acid], the EC50 in test [1] is 527 nM. Regarding `O=C(Nc1nc2ccccc2s1)c1cccc2c1CN(c1ccc(-c3cnn(CC4CCCCO4)c3)c(C(=O)O)n1)CC2` (centres unmarked) [Example 149, 6-[8-(1,3-benzothiazol-2-ylcarbamoyl)-3,4-dihydroisoquinolin-2(1H)-yl]-3-[1-(tetrahydro-2H-pyran-2-ylmethyl)-1H-pyrazol-4-yl]pyridine-2-carboxylic acid], the EC50 in test [1] (Mus musculus) worked out at 986 nM.

For `Cc1c(-c2ccc(N3CCc4cccc(C(=O)Nc5nc6ccccc6s5)c4C3)nc2C(=O)O)cccc1N(C)c1ccccc1` [Example 156, 6-[8-(1,3-benzothiazol-2-ylcarbamoyl)-3,4-dihydroisoquinolin-2(1H)-yl]-3-{2-methyl-3-[methyl(phenyl)amino]phenyl}pyridine-2-carboxylic acid], the EC50 in test [1] (Mus musculus) stood at 15 nM.

As for `Cc1c(-c2ccc(N3CCc4cccc(C(=O)Nc5nc6ccccc6s5)c4C3)nc2C(=O)O)cccc1N(C)C1CCCC(C)(C)C1` (centres unmarked) [Example 159, 6-[8-(1,3-benzothiazol-2-ylcarbamoyl)-3,4-dihydroisoquinolin-2(1H)-yl]-3-{3-[(3,3-dimethylcyclohexyl)(methyl)amino]-2-methylphenyl}pyridine-2-carboxylic acid], the EC50 in test [1] (Mus musculus) came to 31 nM. On the same count and under the same terms, the result for `CN(c1nccc(-c2ccc(N3CCc4cccc(C(=O)Nc5nc6ccccc6s5)c4C3)nc2C(=O)O)c1C#N)C1CCCCC1` [Example 164, 6-[8-(1,3-benzothiazol-2-ylcarbamoyl)-3,4-dihydroisoquinolin-2(1H)-yl]-3'-cyano-2'-[cyclohexyl(methyl)amino]-3,4'-bipyridine-2-carboxylic acid] reads 308 nM.

Regarding `CN(c1cccc(-c2ccc(N3CCc4cccc(C(=O)Nc5nc6ccccc6s5)c4C3)nc2C(=O)O)c1C#N)S(=O)(=O)C1CCCCC1` [Example 181, 6-[8-(1,3-benzothiazol-2-ylcarbamoyl)-3,4-dihydroisoquinolin-2(1H)-yl]-3-{2-cyano-3-[(cyclohexylsulfonyl)(methyl)amino]phenyl}pyridine-2-carboxylic acid], the EC50 in test [1] (Mus musculus) worked out at 241 nM.

For the origin of these results see patent EP2768830B1, “APOPTOSIS-INDUCING AGENTS FOR THE TREATMENT OF CANCER AND IMMUNE AND AUTOIMMUNE DISEASES” (AbbVie Inc., priority 2011, dated 2013).
